ChEMBL document CHEMBL1201861, “Genomics of Drug Sensitity in Cancer screening data, Wellcome Trust Sanger Institute”

Experiments:
Test in all cases: cells
[1] = test system: A4-Fuk; type: functional, cell-based, Homo sapiens; conditions: Homo sapiens, A4-Fuk;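 further: growth inhibition of A4-Fuk cells, read out by a cell viability assay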
Description: SANGER: Inhibition of human A4-Fuk cell growth in a cell viability assay.

[2] = test system: A101D; type: functional, cell-based, Homo sapiens; conditions: Homo sapiens, A101D;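 further: growth inhibition of the cell line, measured with a viability assay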
Description: SANGER: Inhibition of human A101D cell growth in a cell viability assay.

[3] = test system: HCC1187; type: functional, cell-based, Homo sapiens; conditions: Homo sapiens, HCC1187;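 further: growth inhibition of HCC1187 cells, read out with a cell viability assay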
Description: SANGER: Inhibition of human HCC1187 cell growth in a cell viability assay.

[4] = test system: COLO-824; type: functional, cell-based, Homo sapiens; conditions: Homo sapiens, COLO-824
Description: SANGER: Inhibition of human COLO-824 cell growth in a cell viability assay.

[5] = test system: LS-411N; type: functional, cell-based, Homo sapiens; conditions: Homo sapiens, LS-411N
[6] = test system: MZ2-MEL; type: functional, cell-based, Homo sapiens; conditions: Homo sapiens, MZ2-MEL;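 further: growth inhibition of MZ2-MEL cells read out with a cell viability assay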
Description: SANGER: Inhibition of human MZ2-MEL cell growth in a cell viability assay.

[7] = test system: DMS-114; type: functional, cell-based, Homo sapiens; conditions: Homo sapiens, DMS-114
[8] = test system: KLE; type: functional, cell-based, Homo sapiens; conditions: Homo sapiens, KLE;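 further: growth inhibition of human KLE cells, read out with a cell viability assay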
Description: SANGER: Inhibition of human KLE cell growth in a cell viability assay.

[9] = test system: SHP77; type: functional, cell-based, Homo sapiens, SHP-77; conditions: Homo sapiens, SHP77;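 further: growth inhibition of human SHP-77 cells measured by a cell viability assay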
Description: SANGER: Inhibition of human SHP-77 cell growth in a cell viability assay.

[10] = test system: SCH; type: functional, cell-based, Homo sapiens; conditions: Homo sapiens, SCH;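 further: growth inhibition of human SCH cells, read out in a cell viability assay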
Description: SANGER: Inhibition of human SCH cell growth in a cell viability assay.

[11] = test system: AM-38; type: functional, cell-based, Homo sapiens; conditions: Homo sapiens, AM-38;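 further: growth inhibition of AM-38 cells of human origin, read out by a cell viability assay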
Description: SANGER: Inhibition of human AM-38 cell growth in a cell viability assay.

[12] = test system: UACC-257; type: functional, cell-based, Homo sapiens; conditions: Homo sapiens, UACC-257
Description: SANGER: Inhibition of human UACC-257 cell growth in a cell viability assay.

[13] = test system: SH-4; type: functional, cell-based, Homo sapiens; conditions: Homo sapiens, SH-4;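 further: growth inhibition of SH-4 cells, read out with a cell viability assay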
Description: SANGER: Inhibition of human SH-4 cell growth in a cell viability assay.

[14] = test system: HAL-01; type: functional, cell-based, Homo sapiens; conditions: Homo sapiens, HAL-01;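 further: growth inhibition of human HAL-01 cells, read out with a cell viability assay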
Description: SANGER: Inhibition of human HAL-01 cell growth in a cell viability assay.

[15] = test system: NCI-H1770; type: functional, cell-based, Homo sapiens; conditions: Homo sapiens, NCI-H1770;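 further: growth inhibition of NCI-H1770 cells determined with a viability readout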
Description: SANGER: Inhibition of human NCI-H1770 cell growth in a cell viability assay.

[16] = test system: Mo; type: functional, cell-based, Homo sapiens; conditions: Homo sapiens, Mo
Description: SANGER: Inhibition of human Mo-T cell growth in a cell viability assay.

[17] = test system: BB49-HNC; type: functional, cell-based, Homo sapiens; conditions: Homo sapiens, BB49-HNC;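 further: cell viability assay read-out, reported as inhibition of BB49-HNC cell growth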
Description: SANGER: Inhibition of human BB49-HNC cell growth in a cell viability assay.

[18] = test system: KM-H2; type: functional, cell-based, Homo sapiens; conditions: Homo sapiens, KM-H2;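 further: growth inhibition of KM-H2 cells, read out by a cell viability assay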
Description: SANGER: Inhibition of human KM-H2 cell growth in a cell viability assay.

[19] = test system: NCI-H2126; type: functional, cell-based, Homo sapiens; conditions: Homo sapiens, NCI-H2126;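 further: growth inhibition of the cancer cell line, determined with a cell viability readout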
Description: SANGER: Inhibition of human NCI-H2126 cell growth in a cell viability assay.

[20] = test system: LOX IMVI; type: functional, cell-based, Homo sapiens; conditions: Homo sapiens, LOX IMVI
Description: SANGER: Inhibition of human LOXIMVI cell growth in a cell viability assay.

[21] = test system: A3-KAW; type: functional, cell-based, Homo sapiens; conditions: Homo sapiens, A3-KAW;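 further: growth inhibition of human A3-KAW cells, read out with a cell viability assay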
Description: SANGER: Inhibition of human A3-KAW cell growth in a cell viability assay.

[22] = test system: SK-MEL-2; type: functional, cell-based, Homo sapiens; conditions: Homo sapiens, SK-MEL-2;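 further: growth inhibition of human SK-MEL-2 cells measured with a cell viability assay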
Description: SANGER: Inhibition of human SK-MEL-2 cell growth in a cell viability assay.

[23] = test system: GR-ST; type: functional, cell-based, Homo sapiens; conditions: Homo sapiens, GR-ST
Description: SANGER: Inhibition of human GR-ST cell growth in a cell viability assay.

[24] = test system: NCI-H1299; type: functional, cell-based, Homo sapiens; conditions: Homo sapiens, NCI-H1299;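 further: growth inhibition of human NCI-H1299 cells, read out by a cell viability assay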
Description: SANGER: Inhibition of human NCI-H1299 cell growth in a cell viability assay.

[25] = test system: MFM-223; type: functional, cell-based, Homo sapiens; conditions: Homo sapiens, MFM-223
Description: SANGER: Inhibition of human MFM-223 cell growth in a cell viability assay.

[26] = test system: MFH-ino; type: functional, cell-based, Homo sapiens; conditions: Homo sapiens, MFH-ino;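 further: growth inhibition of human MFH-ino cells, read out by a cell viability assay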
Description: SANGER: Inhibition of human MFH-ino cell growth in a cell viability assay.

[27] = test system: LB831-BLC; type: functional, cell-based, Homo sapiens; conditions: Homo sapiens, LB831-BLC;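 further: growth inhibition of LB831-BLC cells, read out with a cell viability assay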
Description: SANGER: Inhibition of human LB831-BLC cell growth in a cell viability assay.

[28] = test system: DJM-1; type: functional, cell-based, Homo sapiens; conditions: Homo sapiens, DJM-1;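 further: growth inhibition of human DJM-1 cells, read out by a cell viability assay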
Description: SANGER: Inhibition of human DJM-1 cell growth in a cell viability assay.

[29] = test system: RPMI-8226; type: functional, cell-based, Homo sapiens; conditions: Homo sapiens, RPMI-8226
Description: SANGER: Inhibition of human RPMI-8226 cell growth in a cell viability assay.

[30] = test system: SBC-1; type: functional, cell-based, Homo sapiens; conditions: Homo sapiens, SBC-1;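 further: cell viability assay measuring growth inhibition of the SBC-1 cell line, IC50 being the concentration that halves growth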
Description: SANGER: Inhibition of human SBC-1 cell growth in a cell viability assay.

[31] = test system: SJSA-1; type: functional, cell-based, Homo sapiens; conditions: Homo sapiens, SJSA-1;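 further: growth inhibition of human SJSA-1 cells, read out through a cell viability measurement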
Description: SANGER: Inhibition of human SJSA-1 cell growth in a cell viability assay.

[32] = test system: HT; type: functional, cell-based, Homo sapiens; conditions: Homo sapiens, HT
Description: SANGER: Inhibition of human HT cell growth in a cell viability assay.

[33] = test system: SW 962; type: functional, cell-based, Homo sapiens; conditions: Homo sapiens, SW 962;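 further: growth inhibition of human SW962 cells, read out by a cell viability assay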
Description: SANGER: Inhibition of human SW962 cell growth in a cell viability assay.

[34] = test system: L-428; type: functional, cell-based, Homo sapiens; conditions: Homo sapiens, L-428
Description: SANGER: Inhibition of human L-428 cell growth in a cell viability assay.

[35] = test system: TE-9; type: functional, cell-based, Homo sapiens; conditions: Homo sapiens, TE-9;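 further: cell growth inhibition, measured with a cell viability readout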
Description: SANGER: Inhibition of human TE-9 cell growth in a cell viability assay.

[36] = test system: HCC2218; type: functional, cell-based, Homo sapiens; conditions: Homo sapiens, HCC2218;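 further: cell viability assay read-out, with IC50 given as the concentration that inhibits growth of the cell line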
Description: SANGER: Inhibition of human HCC2218 cell growth in a cell viability assay.

[37] = test system: NB12; type: functional, cell-based, Homo sapiens; conditions: Homo sapiens, NB12;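 further: growth inhibition of human NB12 cells, read out by a cell viability assay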
Description: SANGER: Inhibition of human NB12 cell growth in a cell viability assay.

[38] = test system: ES4; type: functional, cell-based, Homo sapiens; conditions: Homo sapiens, ES4;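 further: growth inhibition of human ES4 cells, read out by a cell viability assay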
Description: SANGER: Inhibition of human ES4 cell growth in a cell viability assay.

[39] = test system: HC-1; type: functional, cell-based, Homo sapiens; conditions: Homo sapiens, HC-1;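 further: growth inhibition of HC-1 cells measured by a cell viability assay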
Description: SANGER: Inhibition of human HC-1 cell growth in a cell viability assay.

[40] = test system: ONS-76; type: functional, cell-based, Homo sapiens; conditions: Homo sapiens, ONS-76;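 further: growth inhibition of human ONS-76 cells, read out with a cell viability assay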
Description: SANGER: Inhibition of human ONS-76 cell growth in a cell viability assay.

[41] = test system: HCC 2998; type: functional, cell-based, Homo sapiens; conditions: Homo sapiens, HCC 2998;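 further: growth inhibition of human HCC2998 cells, measured with a cell viability read-out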
Description: SANGER: Inhibition of human HCC2998 cell growth in a cell viability assay.

[42] = test system: NCI-N87; type: functional, cell-based, Homo sapiens; conditions: Homo sapiens, NCI-N87;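 further: growth inhibition of human NCI-N87 cells, read out with a cell viability assay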
Description: SANGER: Inhibition of human NCI-N87 cell growth in a cell viability assay.

[43] = test system: COR-L88; type: functional, cell-based, Homo sapiens; conditions: Homo sapiens, COR-L88;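 further: growth inhibition of COR-L88 cells, read out with a cell viability assay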
Description: SANGER: Inhibition of human COR-L88 cell growth in a cell viability assay.

[44] = test system: J-RT3-T3-5; type: functional, cell-based, Homo sapiens; conditions: Homo sapiens, J-RT3-T3-5;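 further: cell viability assay measuring growth inhibition of human J-RT3-T3-5 cells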
Description: SANGER: Inhibition of human J-RT3-T3-5 cell growth in a cell viability assay.

[45] = test system: SNU1; type: functional, cell-based, Homo sapiens; conditions: Homo sapiens, SNU1;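 further: growth inhibition of human NCI-SNU-1 cells, measured with a cell viability assay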
Description: SANGER: Inhibition of human NCI-SNU-1 cell growth in a cell viability assay.

[46] = test system: ACN; type: functional, cell-based, Homo sapiens; conditions: Homo sapiens, ACN;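 further: growth inhibition of the human ACN cell line, read out via cell viability testing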
Description: SANGER: Inhibition of human ACN cell growth in a cell viability assay.

[47] = test system: NCI-H1838; type: functional, cell-based, Homo sapiens; conditions: Homo sapiens, NCI-H1838;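 further: growth inhibition of NCI-H1838 cells, determined with a cell viability readout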
Description: SANGER: Inhibition of human NCI-H1838 cell growth in a cell viability assay.

[48] = test system: HCC2157; type: functional, cell-based, Homo sapiens; conditions: Homo sapiens, HCC2157;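 further: growth inhibition of the cancer cell line, read out as cell viability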
Description: SANGER: Inhibition of human HCC2157 cell growth in a cell viability assay.

[49] = test system: SK-UT-1; type: functional, cell-based, Homo sapiens; conditions: Homo sapiens, SK-UT-1;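 further: growth inhibition of SK-UT-1 cells, measured by a cell viability assay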
Description: SANGER: Inhibition of human SK-UT-1 cell growth in a cell viability assay.

## Cc1cc([N+](=O)[O-])ccc1NS(=O)(=O)c1cc(Cl)ccc1Cl
[1]
  IC50: > 32 µM
[2]
  IC50: 4.55 µM
[3]
  IC50: 20.8 µM
[4]
  IC50: 18.1 µM
[5]
  IC50: 4.52 µM
[6]
  IC50: 1.44 µM
[7]
  IC50: > 32 µM
[8]
  IC50: 6.59 µM
[9]
  IC50: 22.9 µM
[10]
  IC50: 20.5 µM
[11]
  IC50: 18.8 µM
[12]
  IC50: 3.84 µM
[13]
  IC50: 1.38 µM
[14]
  IC50: 12.4 µM
[15]
  IC50: 17.1 µM
[16]
  IC50: > 32 µM
[17]
  IC50: > 32 µM
[18]
  IC50: 14.9 µM
[19]
  IC50: 24.8 µM
[20]
  IC50: 13.9 µM
[21]
  IC50: 8.78 µM
[22]
  IC50: 1.72 µM
[23]
  IC50: 10.3 µM
[24]
  IC50: 3.19 µM
[25]
  IC50: > 32 µM
[26]
  IC50: 0.506 µM
[27]
  IC50: 2.1 µM
[28]
  IC50: 10.5 µM
[29]
  IC50: 6.56 µM
[30]
  IC50: > 32 µM
[31]
  IC50: 5.7 µM
[32]
  IC50: 2.75 µM
[33]
  IC50: 4.68 µM
[34]
  IC50: > 32 µM
[35]
  IC50: 2.69 µM
[36]
  IC50: 3.44 µM
[37]
  IC50: 11.1 µM
[38]
  IC50: 7.57 µM
[39]
  IC50: 12.7 µM
[40]
  IC50: 6.44 µM
[41]
  IC50: 3.15 µM
[42]
  IC50: 7.25 µM
[43]
  IC50: > 32 µM
[44]
  IC50: 5.35 µM
[45]
  IC50: 10.8 µM
[46]
  IC50: 3.71 µM
[47]
  IC50: > 32 µM
[48]
  IC50: 8.76 µM
[49]
  IC50: 1.96 µM

## N#Cc1c(O)c2c(-c3ccc(-c4ccccc4O)cc3)csc2[nH]c1=O
[1]
  IC50: > 1.02 µM
[2]
  IC50: > 1.02 µM
[3]
  IC50: > 1.02 µM
[4]
  IC50: 0.328 µM
[5]
  IC50: > 1.02 µM
[6]
  IC50: > 1.02 µM
[7]
  IC50: > 1.02 µM
[8]
  IC50: > 1.02 µM
[9]
  IC50: 0.383 µM
[10]
  IC50: > 1.02 µM
[11]
  IC50: 0.0644 µM
[12]
  IC50: > 1.02 µM
[13]
  IC50: > 1.02 µM
[14]
  IC50: > 1.02 µM
[15]
  IC50: 0.109 µM
[16]
  IC50: > 1.02 µM
[17]
  IC50: > 1.02 µM
[18]
  IC50: 0.424 µM
[19]
  IC50: > 1.02 µM
[20]
  IC50: 0.0883 µM
[21]
  IC50: 0.0917 µM
[22]
  IC50: > 1.02 µM
[23]
  IC50: 0.218 µM
[24]
  IC50: > 1.02 µM
[25]
  IC50: > 1.02 µM
[26]
  IC50: > 1.02 µM
[27]
  IC50: > 1.02 µM
[28]
  IC50: > 1.02 µM
[29]
  IC50: 0.246 µM
[30]
  IC50: > 1.02 µM
[31]
  IC50: > 1.02 µM
[32]
  IC50: 0.335 µM
[33]
  IC50: > 1.02 µM
[34]
  IC50: 0.225 µM
[35]
  IC50: > 1.02 µM
[36]
  IC50: 0.342 µM
[37]
  IC50: > 1.02 µM
[38]
  IC50: > 1.02 µM
[39]
  IC50: 0.0831 µM
[40]
  IC50: > 1.02 µM
[41]
  IC50: > 1.02 µM
[42]
  IC50: > 1.02 µM
[43]
  IC50: 0.725 µM
[44]
  IC50: 0.378 µM
[45]
  IC50: 0.311 µM
[46]
  IC50: > 1.02 µM
[47]
  IC50: > 1.02 µM
[48]
  IC50: 0.105 µM
[49]
  IC50: > 1.02 µM
